The values that follow come from patent US5420348A, “Urea derivatives and salts thereof” (Yamanouchi Pharmaceutical Co., Ltd., priority 1990, dated 1995).

The target of test [1] is acyl-CoA cholesterol acyltransferase (ACAT). The test can be described thus: Inhibitory action against acyl-CoA cholesterol acyltransferase (ACAT) activity in rabbit liver microsome. The test is classed as biochemical. The note with it: 36 μM [1-14C]oleoyl CoA, pH 7.4, 37° C., 10 minutes, read-out: ACAT Inhibiting Activity IC50 (50% Inhibition Concentration). The procedure:
i) ACAT enzyme inhibiting activity:
Inhibitory action against acyl-CoA cholesterol acyltransferase (ACAT) activity in rabbit liver microsome
The rabbit liver microsome was prepared as an enzyme fraction according to the method of Heider (J. G. Heider et al., J. of Lipid Res., Vol. 24, 1127-34 (1983)).
To the mixture of 0.154M phosphate buffer solution (pH 7.4), 2 mM dithiothreitol, 36 μM bovine serum albumin and 10-100 μg of microsome fraction was added liposome prepared by the method of Suckling (K. E. Suckling et al., FEBS Letters, Vol. 151, No. 111-116 (1983)) so that the proposition of liposome became 20% v/v. To the mixture was added 2% v/v of each concentration of test compound solution in dimethyl sulfoxide and the mixture was heated at 37° C. for 5 minutes. Then 36 μM oleoyl CoA containing 1^14 C-oleoyl CoA was added and the resultant mixture was heated at 37° C. for 10 minutes. The reaction was stopped by adding chloroform/methanol (=2/1). After stirring, cholesterol oleate extracted into the chloroform layer was separated by thin layer chromatography and the radioactivity was determined as ACAT activity.
Background: Liver microsomes are vesicles of endoplasmic reticulum, rich in cytochrome P450 enzymes.

A further test has as its system serum total cholesterol. The test can be described thus: Lipid-lowering activity in rats fed a diet containing 1.5% cholesterol and 0.5% bile acid. In kind it is in vivo. The note with it: Rattus norvegicus; male Sprague-Dawley rats, 1.5% cholesterol/0.5% bile acid diet for 7 days, oral once a day during last 5 days, blood 2 hours after last administration; read-out: % Reduction in Serum Total Cholesterol ED50. An excerpt:
ii) Lipid-lowering activity:
Two hours after the last administration, blood samples were collected under ether anesthesia for determination of serum total cholesterol level and HDL-cholesterol level.

As to `Cc1cc(C)c(NC(=O)N(Cc2ccc3c(c2)Cc2ccccc2-3)C2CCCCCC2)c(C)c1` [Example 1, 1-Cycloheptyl-1-[(2-fluorenyl)methyl]-3-(2,4,6-trimethylphenyl)urea], the IC50 in test [1] stood at 73 nM. Also, the ED50 in the test on serum total cholesterol was found to be 3.8 mg/kg.
For `Cc1cc(C)c(NC(=O)N(Cc2cc3ccccc3c3ccccc23)C2CCCCCC2)c(C)c1` [Example 10, 1-Cycloheptyl-1-[(9-phenanthrenyl)methyl]-3-(2,4,6-trimethylphenyl)urea] the same measures were 61 nM and 1.7 mg/kg.
